Reference: patent US11584734B2, “Tricyclic compounds as histone methyltransferase inhibitors” (GLOBAL BLOOD THERAPEUTICS, INC., priority 2017, dated 2023)

The molecules below were run against T1, G9a (Homo sapiens, UniProt Q96KQ7) (assay: G9a AlphaLISA enzymatic activity assay). Conditions: negative log of IC50 in molar, 0.15 nM G9a, 15 uM S-adenosyl-methionine, 100 nM biotinylated histone 3 peptide (1-21).
T1 sequence (Q96KQ7 1-1210): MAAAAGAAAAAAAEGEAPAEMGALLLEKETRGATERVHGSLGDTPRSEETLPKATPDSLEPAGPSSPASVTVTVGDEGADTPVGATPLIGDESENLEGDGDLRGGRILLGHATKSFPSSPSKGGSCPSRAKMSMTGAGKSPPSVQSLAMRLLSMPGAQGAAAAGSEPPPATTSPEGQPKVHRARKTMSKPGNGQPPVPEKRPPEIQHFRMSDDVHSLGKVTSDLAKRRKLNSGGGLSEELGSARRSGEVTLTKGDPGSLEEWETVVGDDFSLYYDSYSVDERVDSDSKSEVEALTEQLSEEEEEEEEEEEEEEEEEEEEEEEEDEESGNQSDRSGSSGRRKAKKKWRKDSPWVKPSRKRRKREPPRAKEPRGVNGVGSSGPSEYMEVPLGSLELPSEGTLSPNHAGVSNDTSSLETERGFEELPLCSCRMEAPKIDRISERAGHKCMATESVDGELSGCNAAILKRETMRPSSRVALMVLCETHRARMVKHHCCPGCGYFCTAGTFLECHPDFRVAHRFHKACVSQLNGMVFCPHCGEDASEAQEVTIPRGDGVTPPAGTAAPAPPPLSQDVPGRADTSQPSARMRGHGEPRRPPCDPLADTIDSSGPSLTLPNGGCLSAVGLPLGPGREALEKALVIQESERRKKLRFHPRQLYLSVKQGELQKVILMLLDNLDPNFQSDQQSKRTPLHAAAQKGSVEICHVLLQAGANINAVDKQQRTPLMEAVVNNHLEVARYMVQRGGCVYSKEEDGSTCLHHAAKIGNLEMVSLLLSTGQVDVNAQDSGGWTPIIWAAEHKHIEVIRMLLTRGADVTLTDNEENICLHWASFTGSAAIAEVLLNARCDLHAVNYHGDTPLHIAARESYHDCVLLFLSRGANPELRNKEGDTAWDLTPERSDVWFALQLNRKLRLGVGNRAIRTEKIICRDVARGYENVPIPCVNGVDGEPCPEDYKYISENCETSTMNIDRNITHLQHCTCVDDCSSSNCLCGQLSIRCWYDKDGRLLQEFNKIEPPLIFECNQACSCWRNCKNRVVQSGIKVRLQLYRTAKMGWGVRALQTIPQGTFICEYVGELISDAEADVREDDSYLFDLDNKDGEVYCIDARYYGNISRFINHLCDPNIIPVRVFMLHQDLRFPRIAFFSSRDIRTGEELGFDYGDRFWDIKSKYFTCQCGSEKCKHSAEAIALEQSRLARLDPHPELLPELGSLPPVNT
Type: biochemical
Source text: The G9a AlphaLISA assay was used to detect the methyl modifications of a biotinylated histone H3 peptide by the compounds. These modifications are done by the histone methyl transferase activity of the G9a enzyme. The assay consists of reading a chemiluminescent signal at 615 nm; this signal is generated by a laser excitation at 680 nm that transfers a reactive singlet oxygen between the donor beads and acceptor beads. Donor beads are streptavidin conjugated and bind to the biotin on the peptide. Acceptor beads are conjugated with an antibody that recognizes the specific G9a methyl mark on the peptide. If there is a methyl mark on the peptide, the acceptor beads will bind to the peptide. Upon binding, the acceptor beads will be in close proximity (<200 nm) of the donor beads and when the donor beads are excited, the transfer of the oxygen can occur and a strong signal will be generated. If there is no methyl mark, the interaction between beads will not occur and signal will be at background levels.
For the assay, the following buffer was used to set up reactions: 50 mM Tris-HCl pH9, 50 mM NaCl, 0.01% Tween-20 and 1 mM DTT (added fresh prior to starting the reactions). […] The reaction is incubated at rt for 1 hour and subsequently quenched by the addition of the acceptor beads (anti-H3k9me2 AlphaLISA acceptor beads, PerkinElmer #AL117) at a final concentration of 20 ug/mL. The acceptor beads are incubated for 1 hour. After 1 hour, the donor beads are added at a final concentration of 20 ug/mL (Alpha Streptavidin donor beads, PerkinElmer #6760002). Donor beads are incubated for 0.5 hours. Both donor and acceptor beads are resuspended in AlphaLISA 5X Epigenetics Buffer 1 Kit (PerkinElmer #AL008) prior to addition to the reaction. All manipulations and incubations with the donor and acceptor beads are done in subdued light. Signal is detected in an EnVision plate reader in Alpha mode. See ACS Med Chem Lett. 2014; 5(2):205-9.
Percent inhibition was calculated for each compound dilution and the concentration that produced 50% inhibition was calculated. This value is presented as the pIC50, which is the negative log of the IC50 value in molar.

Point of comparison: `COc1cc2c(NCC3CNC3)c3c(nc2cc1OCCCN1CCCC1)CCC3` [Example 67, N-[(azetidin-3-yl)methyl]-7-methoxy-6-[3-(pyrrolidin-1-yl)propoxy]-1H,2H,3H-cyclopenta[b]quinolin-9-amine], IC50 1.35 nM. Against it:
- CNc1c2c(nc3cc(OCCCN)c(OC)cc13)CCC2 [Example 61, 6-(3-aminopropoxy)-7-methoxy-N-methyl-1H,2H,3H-cyclopenta[b]quinolin-9-amine] — 400-fold higher, 537 nM
- CNc1c2c(nc3cc(OCCCNS(C)(=O)=O)c(OC)cc13)CCC2 [Example 62, N-(3-{[7-methoxy-9-(methylamino)-1H,2H,3H-cyclopenta[b]quinolin-6-yl]oxy}propyl)methanesulfonamide] — 690-fold higher, 933 nM
- COc1cc2c(NCC3CC3)c3c(nc2cc1OCCOCCN(C)C)CCC3 [Example 63, N-(cyclopropylmethyl)-6-{2-[2-(dimethylamino)ethoxy]ethoxy}-7-methoxy-1H,2H,3H-cyclopenta[b]quinolin-9-amine] — 13-fold higher, 18.2 nM
- CNc1c2c(nc3cc(OCCC(C)N4CCCC4)c(OC)cc13)CCC2 (stereo not shown) [Example 64, 7-methoxy-N-methyl-6-[3-(pyrrolidin-1-yl)butoxy]-1H,2H,3H-cyclopenta[b]quinolin-9-amine] — 93-fold higher, 126 nM
- CNc1c2c(nc3cc(OC(C)CCN4CCCC4)c(OC)cc13)CCC2 (stereo not shown) [Example 65, 7-methoxy-N-methyl-6-{[4-(pyrrolidin-1-yl)butan-2-yl]oxy}-1H,2H,3H-cyclopenta[b]quinolin-9-amine] — 54-fold higher, 72.4 nM
- CCN(CC)CCOCCOc1cc2nc3c(c(NC(C)C)c2cc1OC)CCC3 [Example 66, 6-{2-[2-(diethylamino)ethoxy]ethoxy}-7-methoxy-N-(propan-2-yl)-1H,2H,3H-cyclopenta[b]quinolin-9-amine] — 320-fold higher, 437 nM
- COc1cc2c(NCC3CC3)c3c(nc2cc1OCC1(CN2CCCC2)COC1)CCC3 [Example 68, N-(cyclopropylmethyl)-7-methoxy-6-({3-[(pyrrolidin-1-yl)methyl]oxetan-3-yl}methoxy)-1H,2H,3H-cyclopenta[b]quinolin-9-amine] — 1100-fold higher, 1550 nM
- CNc1c2c(nc3cc(OCCCN4C5CCCC4CC5)c(OC)cc13)CCC2 [Example 69, 6-(3-{8-azabicyclo[3.2.1]octan-8-yl}propoxy)-7-methoxy-N-methyl-1H,2H,3H-cyclopenta[b]quinolin-9-amine] — 2000-fold higher, 2690 nM
- COc1cc2c(NC3CCN(C(C)C)CC3)c3c(nc2cc1OCCCN(C)C)CCC3 [Example 70, N-{6-[3-(dimethylamino)propoxy]-7-methoxy-1H,2H,3H-cyclopenta[b]quinolin-9-yl}-1-(propan-2-yl)piperidin-4-amine] — 3.6-fold higher, 4.9 nM
- CNc1c2c(nc3cc(OCCCN(C)C)c(OC)cc13)CCC2 [Example 71, 6-[3-(dimethylamino)propoxy]-7-methoxy-N-methyl-1H,2H,3H-cyclopenta[b]quinolin-9-amine] — 30-fold higher, 40.7 nM
- COc1cc2c(NCC3CC3)c3c(nc2cc1OCCCNS(N)(=O)=O)CCC3 [Example 72, N-[3-({9-[(cyclopropylmethyl)amino]-7-methoxy-1H,2H,3H-cyclopenta[b]quinolin-6-yl}oxy)propyl]aminosulfonamide] — 1400-fold higher, 1950 nM
- COc1cc2c(NC3CCCNC3)c3c(nc2cc1OCCCN(C)C)CCC3 (stereo not shown) [Example 73, N-{6-[3-(dimethylamino)propoxy]-7-methoxy-1H,2H,3H-cyclopenta[b]quinolin-9-yl}piperidin-3-amine] — within 1.5-fold, 1.45 nM
- COc1cc2c(NCC3CNC3)c3c(nc2cc1OCCCN1CC2CC(C2)C1)CCC3 [Example 74, 6-(3-{3-azabicyclo[3.1.1]heptan-3-yl}propoxy)-N-[(azetidin-3-yl)methyl]-7-methoxy-1H,2H,3H-cyclopenta[b]quinolin-9-amine] — 6.2-fold higher, 8.32 nM
- CCNc1c2c(nc3cc(OCCCN4CC[C@@H](OC)C4)c(OC)cc13)CCC2 [Example 75, N-ethyl-7-methoxy-6-{3-[(3R)-3-methoxypyrrolidin-1-yl]propoxy}-1H,2H,3H-cyclopenta[b]quinolin-9-amine] — 39-fold higher, 52.5 nM
- COc1cc2c(NC3CCN(C(C)C)CC3)c3c(nc2cc1OCCCN1CC[C@@H](OC)C1)CCC3 [Example 76, N-(7-methoxy-6-{3-[(3R)-3-methoxypyrrolidin-1-yl]propoxy}-1H,2H,3H-cyclopenta[b]quinolin-9-yl)-1-(propan-2-yl)piperidin-4-amine] — 4.8-fold higher, 6.46 nM
